Four compounds from ChEMBL document CHEMBL2073994, “The multidrug resistance-associated protein 1 transports methoxychlor and protects the seminiferous epithelium from injury” (Toxicol Lett, 2003) can be followed below.

The structures appear in SMILES notation.

Sequence of Multidrug resistance-associated protein 1 (P33527 whole entry): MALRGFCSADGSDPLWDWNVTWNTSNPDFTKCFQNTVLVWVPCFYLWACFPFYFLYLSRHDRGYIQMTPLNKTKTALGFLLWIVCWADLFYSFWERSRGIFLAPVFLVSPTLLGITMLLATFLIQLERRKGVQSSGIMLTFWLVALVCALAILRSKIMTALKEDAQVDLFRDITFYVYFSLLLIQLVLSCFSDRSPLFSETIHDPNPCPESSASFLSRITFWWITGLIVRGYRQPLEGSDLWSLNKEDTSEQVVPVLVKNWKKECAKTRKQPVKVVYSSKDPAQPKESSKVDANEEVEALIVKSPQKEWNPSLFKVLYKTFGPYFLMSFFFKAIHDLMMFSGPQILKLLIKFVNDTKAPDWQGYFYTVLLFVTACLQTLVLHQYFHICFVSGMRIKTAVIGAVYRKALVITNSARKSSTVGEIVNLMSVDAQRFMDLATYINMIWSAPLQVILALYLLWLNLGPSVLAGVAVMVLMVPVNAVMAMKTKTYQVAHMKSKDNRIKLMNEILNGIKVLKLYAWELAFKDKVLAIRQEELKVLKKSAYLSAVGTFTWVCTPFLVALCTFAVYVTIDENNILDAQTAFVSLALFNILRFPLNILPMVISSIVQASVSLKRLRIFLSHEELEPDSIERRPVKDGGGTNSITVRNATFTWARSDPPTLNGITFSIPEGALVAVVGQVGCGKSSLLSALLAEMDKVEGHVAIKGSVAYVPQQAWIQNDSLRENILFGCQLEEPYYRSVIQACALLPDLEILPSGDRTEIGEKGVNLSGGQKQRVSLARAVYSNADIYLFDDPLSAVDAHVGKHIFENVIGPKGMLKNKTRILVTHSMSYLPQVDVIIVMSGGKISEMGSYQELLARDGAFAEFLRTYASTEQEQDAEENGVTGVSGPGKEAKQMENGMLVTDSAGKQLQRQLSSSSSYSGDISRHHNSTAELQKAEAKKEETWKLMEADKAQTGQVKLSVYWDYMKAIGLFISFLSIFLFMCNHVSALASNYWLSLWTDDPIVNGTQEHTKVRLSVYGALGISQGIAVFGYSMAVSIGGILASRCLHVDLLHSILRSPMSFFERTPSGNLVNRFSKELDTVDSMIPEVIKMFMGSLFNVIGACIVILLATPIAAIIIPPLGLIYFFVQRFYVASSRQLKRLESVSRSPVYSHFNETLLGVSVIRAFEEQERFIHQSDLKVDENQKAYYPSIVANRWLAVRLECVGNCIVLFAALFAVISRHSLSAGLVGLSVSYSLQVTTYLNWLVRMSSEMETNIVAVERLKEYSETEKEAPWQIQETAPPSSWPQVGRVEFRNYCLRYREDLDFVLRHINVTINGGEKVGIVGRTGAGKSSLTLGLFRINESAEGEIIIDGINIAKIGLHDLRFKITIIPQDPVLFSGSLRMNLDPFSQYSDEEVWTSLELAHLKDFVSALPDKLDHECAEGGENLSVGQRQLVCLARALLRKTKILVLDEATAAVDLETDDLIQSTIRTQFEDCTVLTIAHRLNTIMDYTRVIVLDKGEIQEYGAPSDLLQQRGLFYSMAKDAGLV

The data set concerns the target Multidrug resistance-associated protein 1 (Homo sapiens, UniProt P33527). The experiment in a line: TP_TRANSPORTER: drug resistance in MRP1-expressing NIH/3T3 cells. The class given is functional, cell-based. As to conditions: mouse, nih3t3.
As to `CC(C)OC(=O)Nc1cccc(Cl)c1` [CHLORPROPHAM], the Activity result was “substrate []”.

In the case of `COc1cccc2c1C(=O)c1c(O)c3c(c(O)c1C2=O)C[C@@](O)(C(=O)CO)C[C@@H]3O[C@H]1C[C@H](N)[C@H](O)[C@H](C)O1` [DOXORUBICIN], the Activity entry was “substrate []”.

As to `COP(=S)(OC)Oc1ccc([N+](=O)[O-])c(C)c1` [FENITROTHION], the Activity result is “substrate []”.

Take `COc1ccc(C(c2ccc(OC)cc2)C(Cl)(Cl)Cl)cc1` [METHOXYCHLOR]: the Activity result was “substrate []”.
